The results in this text go back to ChEMBL document CHEMBL4673371, “Discovery of BAZ1A bromodomain inhibitors with the aid of virtual screening and activity evaluation” (Bioorg Med Chem Lett, 2021).

Each structure is given as a SMILES string.

One assay relates to U-87 MG. As to the kind of experiment: Cytotoxicity against human U87 cells assessed as reduction in cell viability incubated for 72 hrs by MTT assay. It is filed as functional, cell-based, U-87MG ATCC.
Details: not given
A word on the IC50: it is the midpoint of a concentration-inhibition curve. Take `O=C(Nc1cccc([N+](=O)[O-])c1)Nc1nc(-c2ccccc2)cs1`: the IC50 was over 100 µM.

In a further assay the test system is Bel-7402. As to the kind of experiment: Cytotoxicity against human BEL7402 cells assessed as reduction in cell viability incubated for 72 hrs by MTT assay. It is filed as functional, cell-based. The conditions noted are these: Bel-7402, 72 h. (In general: Formazan colour is commonly taken as a measure of viable cells.)
Turning to `O=C(Nc1cccc([N+](=O)[O-])c1)Nc1nc(-c2ccccc2)cs1`, the half-inhibitory concentration (IC50) is over 100 µM.

System in another assay: not listed separately
As to the kind of experiment: Cytotoxicity against human H820 cells assessed as reduction in cell viability incubated for 72 hrs by MTT assay. It is filed as functional, cell-based. Conditions: NCI-H820, 72 h.
Regarding `O=C(Nc1cccc([N+](=O)[O-])c1)Nc1nc(-c2ccccc2)cs1`, the IC50 turned out to be 73.7 µM.

Another assay deals with NCI-H1975. As to the kind of experiment: Cytotoxicity against human H1975 cells assessed as reduction in cell viability incubated for 72 hrs by MTT assay. It counts as functional, cell-based. The conditions noted are these: NCI-H1975, 72 h.
Consider `O=C(Nc1cccc([N+](=O)[O-])c1)Nc1nc(-c2ccccc2)cs1`, for which the half-maximal inhibitory concentration (IC50) is 7.7 µM.

The next assay has as its system BT-474. As to the kind of experiment: Cytotoxicity against human BT474 cells assessed as reduction in cell viability incubated for 72 hrs by MTT assay. It counts as functional, cell-based. The conditions noted are these: BT-474, 72 h.
As for `O=C(Nc1cccc([N+](=O)[O-])c1)Nc1nc(-c2ccccc2)cs1`, the half-inhibitory concentration (IC50) stood at 10.7 µM.

The next assay deals with ZR-75-30. As to the kind of experiment: Cytotoxicity against human ZR-75-30 cells assessed as reduction in cell viability incubated for 72 hrs by MTT assay. It counts as functional, cell-based. The conditions noted are these: ZR-75-30, 72 h.
`O=C(Nc1cccc([N+](=O)[O-])c1)Nc1nc(-c2ccccc2)cs1`: the half-inhibitory concentration (IC50) came to 4.29 µM.

Another assay relates to THP-1. As to the kind of experiment: Cytotoxicity against human THP-1 cells assessed as reduction in cell viability incubated for 72 hrs by MTT assay. It counts as functional, cell-based. The conditions noted are these: THP-1, 72 h.
`O=C(Nc1cccc([N+](=O)[O-])c1)Nc1nc(-c2ccccc2)cs1`: the half-maximal inhibitory concentration (IC50) came out at 5.08 µM.

In the next assay the target is T1, Bromodomain adjacent to zinc finger domain protein 1A (Homo sapiens, UniProt Q9NRL2). As to the kind of experiment: Binding affinity to recombinant human N-terminal His6-tagged BAZ1A (1446 to 1516 residues) expressed in Escherichia coli BL21 (DE3) cells by MST assay.
T1 sequence (Q9NRL2 whole entry, the tested form may be a part): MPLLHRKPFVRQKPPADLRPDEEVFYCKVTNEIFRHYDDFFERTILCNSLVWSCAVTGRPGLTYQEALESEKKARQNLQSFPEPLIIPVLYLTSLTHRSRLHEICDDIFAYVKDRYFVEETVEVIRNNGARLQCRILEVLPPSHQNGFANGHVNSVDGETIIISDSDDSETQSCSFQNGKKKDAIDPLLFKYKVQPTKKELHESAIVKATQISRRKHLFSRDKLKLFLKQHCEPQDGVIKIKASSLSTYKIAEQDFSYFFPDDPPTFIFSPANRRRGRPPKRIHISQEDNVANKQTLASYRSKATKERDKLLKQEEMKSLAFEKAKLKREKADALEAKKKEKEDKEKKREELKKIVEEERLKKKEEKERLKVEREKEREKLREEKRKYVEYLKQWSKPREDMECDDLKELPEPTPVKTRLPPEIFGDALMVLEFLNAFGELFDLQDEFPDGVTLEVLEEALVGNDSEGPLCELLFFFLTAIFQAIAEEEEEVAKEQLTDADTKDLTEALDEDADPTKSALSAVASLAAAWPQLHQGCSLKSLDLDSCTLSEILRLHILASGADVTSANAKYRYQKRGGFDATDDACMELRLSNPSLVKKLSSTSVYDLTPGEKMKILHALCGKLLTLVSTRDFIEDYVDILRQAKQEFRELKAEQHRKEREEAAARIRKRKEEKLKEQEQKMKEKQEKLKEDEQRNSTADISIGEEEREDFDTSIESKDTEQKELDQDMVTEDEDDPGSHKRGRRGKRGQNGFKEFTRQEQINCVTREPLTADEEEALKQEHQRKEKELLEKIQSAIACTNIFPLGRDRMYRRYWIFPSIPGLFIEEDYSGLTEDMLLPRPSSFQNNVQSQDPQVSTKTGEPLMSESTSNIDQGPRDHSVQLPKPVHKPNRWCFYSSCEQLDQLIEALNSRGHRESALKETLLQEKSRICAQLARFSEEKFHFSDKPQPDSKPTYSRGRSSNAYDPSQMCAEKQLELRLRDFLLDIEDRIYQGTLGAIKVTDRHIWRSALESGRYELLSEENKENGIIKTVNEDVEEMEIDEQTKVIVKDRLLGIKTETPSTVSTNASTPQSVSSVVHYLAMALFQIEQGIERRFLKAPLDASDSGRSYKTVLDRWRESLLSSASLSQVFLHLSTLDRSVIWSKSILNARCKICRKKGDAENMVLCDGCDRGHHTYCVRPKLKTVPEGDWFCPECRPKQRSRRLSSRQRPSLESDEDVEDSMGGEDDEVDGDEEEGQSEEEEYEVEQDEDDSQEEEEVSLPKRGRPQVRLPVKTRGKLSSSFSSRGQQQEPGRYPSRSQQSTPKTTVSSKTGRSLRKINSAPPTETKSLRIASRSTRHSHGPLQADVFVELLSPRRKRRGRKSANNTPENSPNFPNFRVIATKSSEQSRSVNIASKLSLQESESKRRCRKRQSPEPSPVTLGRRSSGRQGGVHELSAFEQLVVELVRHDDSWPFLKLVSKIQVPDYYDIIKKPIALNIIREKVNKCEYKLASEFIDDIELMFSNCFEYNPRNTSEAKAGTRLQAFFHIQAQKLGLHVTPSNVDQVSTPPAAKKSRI
Details: not given
Broadly, the Kd is a measure of binding affinity in units of concentration. For the compound `O=C(Nc1ccc2nnsc2c1)N(O)c1ccccc1`, the dissociation constant Kd is 16.3 µM.
For `O=C(Nc1cccc([N+](=O)[O-])c1)Nc1ccc2c(c1)C(=O)CC2`, the Kd was 22 µM.
The same measure, in the same setting: in the case of `O=C(Nc1cccc([N+](=O)[O-])c1)Nc1ccc2c(c1)OCCO2` it was 1.36 µM; in that of `C=C(C)C(=O)Nc1ccc(-c2nc3cc(NC(=O)C(=C)C)ccc3[nH]2)cc1`, 15.2 µM.
Take `CN(C)c1ccc(NC(=O)Nc2cccc([N+](=O)[O-])c2)cc1`: the Kd is 1.76 µM.
As to `O=C(Nc1cccc([N+](=O)[O-])c1)Nc1ccc2nccnc2c1`, the equilibrium dissociation constant (Kd) came out at 3.09 µM.
With `CN(Cc1cccc([N+](=O)[O-])c1)C(=O)Nc1ccc2nnsc2c1`, the equilibrium dissociation constant (Kd) was 57.6 µM.
Take `NC(C(=O)Nc1ccc2nnsc2c1)c1ccccc1` (centres undefined): the equilibrium dissociation constant (Kd) was determined as 1.87 µM.
The same measure, in the same setting: the same measure for `CC(NC(=O)Nc1ccc2nnsc2c1)c1cccc(F)c1` (centres undefined): 8.2 µM.
For `O=C(Nc1ccc2cncnc2c1)Nc1ccc2nnsc2c1`, the Kd is 3.93 µM.
The same measure, in the same setting: in the case of `O=C(Nc1cccc([N+](=O)[O-])c1)Nc1ccc2cccnc2c1` it was 6.68 µM; in that of `O=C(NCC(=O)N1CCCCC1)Nc1ccc2nnsc2c1`, 25.6 µM.
Still for that read-out and setting: in the case of `O=C(Nc1ccc(Cl)c(Cl)c1)Nc1ccc2nnsc2c1` it was 1.57 µM.
Same read-out and setting: in the case of `O=C(Nc1cccc([N+](=O)[O-])c1)Nc1nc(-c2ccccc2)cs1` it was 0.52 µM; in that of `O=C(Nc1ccc(C(F)(F)F)cc1)Nc1cccc(O)c1`, 13.2 µM.
Regarding `Cc1ccc2nc(-c3ccc(NC(=O)c4ccc([N+](=O)[O-])o4)cc3)oc2c1`, the dissociation constant (Kd) was determined as 26.6 µM.

The target of a further assay is T1, Bromodomain adjacent to zinc finger domain protein 1A. As to the kind of experiment: Binding affinity to recombinant human N-terminal His6-tagged BAZ1A (1446 to 1516 residues) expressed in Escherichia coli BL21 (DE3) cells assessed as change in melting temperature at 25 uM by DSF assay.
Details: not given
A general note: Differential scanning fluorimetry follows unfolding on heating by fluorescence.
In general, ΔTm refers to the change in melting temperature against a reference sample. Regarding `O=C(Nc1ccc2nnsc2c1)N(O)c1ccccc1`, the ΔTm amounted to 1.68 °C.
In the case of `O=C(Nc1cccc([N+](=O)[O-])c1)Nc1ccc2c(c1)C(=O)CC2`, the ΔTm came out at 1.16 °C.
The same measure, in the same setting: in the case of `O=C(Nc1cccc([N+](=O)[O-])c1)Nc1ccc2c(c1)OCCO2` it was 1.62 °C.
In the case of `C=C(C)C(=O)Nc1ccc(-c2nc3cc(NC(=O)C(=C)C)ccc3[nH]2)cc1`, the ΔTm turned out to be 1.61 °C.
In the case of `CN(C)c1ccc(NC(=O)Nc2cccc([N+](=O)[O-])c2)cc1`, the ΔTm was 1.56 °C.
Still for that read-out and setting: in the case of `O=C(Nc1cccc([N+](=O)[O-])c1)Nc1ccc2nccnc2c1` it was 1.64 °C; in that of `CN(Cc1cccc([N+](=O)[O-])c1)C(=O)Nc1ccc2nnsc2c1`, 1.46 °C; in that of `NC(C(=O)Nc1ccc2nnsc2c1)c1ccccc1` (centres undefined), 1.25 °C.
As to `CC(NC(=O)Nc1ccc2nnsc2c1)c1cccc(F)c1` (centres undefined), the ΔTm was determined as 1.62 °C.
For `O=C(Nc1ccc2cncnc2c1)Nc1ccc2nnsc2c1`, the ΔTm turned out to be 1.94 °C.
On to `O=C(Nc1cccc([N+](=O)[O-])c1)Nc1ccc2cccnc2c1`, for which the ΔTm was 1.63 °C.
Consider `O=C(NCC(=O)N1CCCCC1)Nc1ccc2nnsc2c1`, for which the ΔTm came to 1.2 °C.
The same measure, in the same setting: in the case of `O=C(Nc1ccc(Cl)c(Cl)c1)Nc1ccc2nnsc2c1` it was 2.59 °C.
For `O=C(Nc1cccc([N+](=O)[O-])c1)Nc1nc(-c2ccccc2)cs1`, the thermal shift (ΔTm) was found to be 2.73 °C.
Still for that read-out and setting: the same measure for `O=C(Nc1ccc(C(F)(F)F)cc1)Nc1cccc(O)c1`: 3.15 °C.
The same measure, in the same setting: in the case of `Cc1ccc2nc(-c3ccc(NC(=O)c4ccc([N+](=O)[O-])o4)cc3)oc2c1` it was 1.9 °C.
